From paper PMC9556824, “Design, synthesis and computational study of new benzofuran hybrids as dual PI3K/VEGFR2 inhibitors targeting cancer” (Scientific Reports, 2022)
Where two headings read alike, the source gives them in different places.

How the values were obtained:
[1] = tested on: HePG2, MCF-7, Hela, PC3 cell lines; assay: Antitumor screening using MTT assay, statements across several cell lines; type: cell-based, human; settings: for IC50: Homo sapiens, Hela and PC3, one range for 9 and 10 together, read-out: IC50 values range against Hela and PC3 cell line
Text: (§2) Hepatocellular carcinoma (HePG2), mammary gland breast cancer (MCF-7), epithelioid carcinoma cervix cancer (Hela), and human prostate cancer were included on the panel (PC3). […] The cell lines were obtained from the American Type Culture Collection (ATCC) through VACSERA, a Cairo-based holding firm for biological goods and vaccines.
(§3) The panel consisted of hepatocellular carcinoma (HePG2), mammary gland breast cancer (MCF-7), epithelioid carcinoma cervix cancer (Hela) and human prostate cancer (PC3). Human lung fibroblast (WI38) was used to assay the cytotoxicity effect on normal cell. The cell lines were obtained from ATCC via Holding company for biological products and vaccines (VACSERA), Cairo, Egypt. The cytotoxic activity was defined as the concentration of the compound that causes 50% growth inhibition compared with the growth of untreated cells.

[2] = tested on: human prostate cancer (PC3); assay: Antitumor screening using MTT assay; settings: Homo sapiens; for viability at 1.56 µM / viability at 3.125 µM / viability at 6.25 µM / viability at 12.5 µM / viability at 25 µM / viability at 50 µM / viability at 100 µM: read-out: Average of Relative viability of cells (%); for IC50: read-out: In-vitro cytotoxicity IC50 (µM) PC3
Text: as §2, §3

[3] = tested on: Hepatocellular carcinoma (HePG2); assay: Antitumor screening using MTT assay; type: cell-based, human; settings: Homo sapiens; for viability at 1.56 µM: Conc. 1.56 µM; for viability at 1.56 µM / viability at 3.125 µM / viability at 6.25 µM / viability at 12.5 µM / viability at 25 µM / viability at 50 µM / viability at 100 µM: read-out: Average of Relative viability of cells (%); for viability at 3.125 µM: Conc. 3.125 µM; for viability at 6.25 µM: Conc. 6.25 µM; for viability at 12.5 µM: Conc. 12.5 µM; for viability at 25 µM: Conc. 25 µM; for viability at 50 µM: Conc. 50 µM; for viability at 100 µM: Conc. 100 µM; for IC50: mean ± SD, n = 3, read-out: In-vitro cytotoxicity IC50 (µM) HePG2
Text: as §2, §3

[4] = tested on: mammary gland breast cancer (MCF-7); assay: Antitumor screening using MTT assay; settings: Homo sapiens; for viability at 1.56 µM / viability at 3.125 µM / viability at 6.25 µM / viability at 12.5 µM / viability at 25 µM / viability at 50 µM / viability at 100 µM: MCF7, read-out: Average of Relative viability of cells (%); for IC50: MCF7, read-out: In-vitro cytotoxicity IC50 (µM) MCF-7
Text: as §2, §3

[5] = tested on: epithelioid carcinoma cervix cancer (Hela); assay: Antitumor screening using MTT assay; settings: Homo sapiens, HeLa; for viability at 1.56 µM / viability at 3.125 µM / viability at 6.25 µM / viability at 12.5 µM / viability at 25 µM / viability at 50 µM / viability at 100 µM: read-out: Average of Relative viability of cells (%); for IC50: read-out: In-vitro cytotoxicity IC50 (µM) Hela
Text: as §2, §3

[6] = In vitro cytotoxicity against human normal cell line (MTT); type: cell-based; settings: human, WI38, read-out: Average of Relative viability of cells (%); for viability at 1.56 µM: Conc. 1.56 µM; for viability at 3.125 µM: Conc. 3.125 µM; for viability at 6.25 µM: Conc. 6.25 µM; for viability at 12.5 µM: Conc. 12.5 µM; for viability at 25 µM: Conc. 25 µM; for viability at 50 µM: Conc. 50 µM; for viability at 100 µM: Conc. 100 µM
Text: (§1) The anticancer agent's selectivity for cancer cells is a critical consideration for any researcher, as it can decrease the molecule's adverse effects on normal human cells.

[7] = tested on: human lung fibroblast (WI38); assay: as above; type: cell-based; settings: Homo sapiens, WI-38, human normal cell line WI38; mean ± SD, n = 3
Text: as §1

[8] = WI38 human lung fibroblast cells (normal cell line)
[9] = WI38 normal lung fibroblast cells

SMILES: C/C(=N\NC(=O)Nc1ccc(Cl)cc1)c1cc2ccccc2o1 [Compound 7, (E)-2-[1-(benzofuran-2-yl)ethylidene]-N-(4-chlorophenyl)hydrazine-1-carboxamide]
- anticancer activity towards the four / all assessed cell lines (grade) ([1]; HePG2, MCF-7, Hela, PC3): weak (51–100 (weak))
- viability at 1.56 µM [2]: 100%
- viability at 3.125 µM [2]: 100%
- viability at 6.25 µM [2]: 100%
- viability at 12.5 µM [2]: 93.6%
- viability at 25 µM [2]: 76.5%
- viability at 50 µM [2]: 64.8%
- viability at 100 µM [2]: 50.9%
- IC50 [2]: 93.9 ± 4.7 µM
- melting point: 235 to 237 °C
- viability at 1.56 µM [3]: 100%
- viability at 3.125 µM [3]: 100%
- viability at 6.25 µM [3]: 99.7%
- viability at 12.5 µM [3]: 87.4%
- viability at 25 µM [3]: 72.5%
- viability at 50 µM [3]: 60.2%
- viability at 100 µM [3]: 48.1%
- IC50 [3]: 81.6 ± 3.9 µM
- viability at 1.56 µM [4]: 100%
- viability at 3.125 µM [4]: 100%
- viability at 6.25 µM [4]: 97.6%
- viability at 12.5 µM [4]: 88.9%
- viability at 25 µM [4]: 70.2%
- viability at 50 µM [4]: 58%
- viability at 100 µM [4]: 47.8%
- IC50 [4]: 76.9 ± 3.8 µM
- viability at 1.56 µM [5]: 100%
- viability at 3.125 µM [5]: 100%
- viability at 6.25 µM [5]: 93.8%
- viability at 12.5 µM [5]: 80.7%
- viability at 25 µM [5]: 68.4%
- viability at 50 µM [5]: 56.3%
- viability at 100 µM [5]: 42.9%
- IC50 [5]: 66 ± 3.2 µM
- viability at 1.56 µM [6, 8]: 100%
- viability at 3.125 µM [6, 8]: 100%
- viability at 6.25 µM [6, 8]: 100%
- viability at 12.5 µM [6, 8]: 100%
- viability at 25 µM [6, 8]: 89.3%
- viability at 50 µM [6, 8]: 76.2%
- viability at 100 µM [6, 8]: 55.5%
- IC50 [7]: > 100 µM

SMILES: COc1ccc(/C=N/N=C(\C)c2cc3ccccc3o2)cc1OC [Compound 9, (E)-1-[1-(benzofuran-2-yl)ethylidene]-2-((E)-3,4-dimethoxybenzylidene)hydrazine]
- IC50 [1]: 13.8 to 32.1 µM
- viability at 1.56 µM [2]: 100%
- viability at 3.125 µM [2]: 96.1%
- viability at 6.25 µM [2]: 75.8%
- viability at 12.5 µM [2]: 60.2%
- viability at 25 µM [2]: 52.6%
- viability at 50 µM [2]: 44.8%
- viability at 100 µM [2]: 31.2%
- IC50 [2]: 32.1 ± 2.2 µM
- melting point: 130 to 132 °C
- viability at 1.56 µM [3]: 100%
- viability at 3.125 µM [3]: 94.4%
- viability at 6.25 µM [3]: 78.2%
- viability at 12.5 µM [3]: 60.5%
- viability at 25 µM [3]: 49.6%
- viability at 50 µM [3]: 36.8%
- viability at 100 µM [3]: 26.2%
- IC50 [3]: 26.4 ± 2.1 µM
- viability at 1.56 µM [4]: 100%
- viability at 3.125 µM [4]: 96%
- viability at 6.25 µM [4]: 79.5%
- viability at 12.5 µM [4]: 64.2%
- viability at 25 µM [4]: 50.6%
- viability at 50 µM [4]: 38.2%
- viability at 100 µM [4]: 25.3%
- IC50 [4]: 28.1 ± 2.3 µM
- viability at 1.56 µM [5]: 100%
- viability at 3.125 µM [5]: 92%
- viability at 6.25 µM [5]: 73.2%
- viability at 12.5 µM [5]: 50.4%
- viability at 25 µM [5]: 37.1%
- viability at 50 µM [5]: 28.2%
- viability at 100 µM [5]: 20.3%
- IC50 [5]: 17 ± 1.4 µM
- viability at 3.125 µM [6, 8]: 100%
- viability at 1.56 µM [6, 9]: 100%
- viability at 6.25 µM [6, 9]: 99.7%
- viability at 12.5 µM [6, 9]: 85.2%
- viability at 25 µM [6, 9]: 74.5%
- viability at 50 µM [6, 9]: 60.6%
- viability at 100 µM [6, 9]: 47.9%
- IC50 [7]: 82.3 ± 4.3 µM

SMILES: COc1ccccc1/C=N/N=C(\C)c1cc2ccccc2o1 [Compound 10, (E)-1-[1-(benzofuran-2-yl)ethylidene]-2-((E)-2-methoxybenzylidene)hydrazine]
- IC50 [1]: 13.8 to 32.1 µM
- viability at 1.56 µM [2]: 100%
- viability at 3.125 µM [2]: 96.3%
- viability at 6.25 µM [2]: 78.2%
- viability at 12.5 µM [2]: 59.1%
- viability at 25 µM [2]: 46.8%
- viability at 50 µM [2]: 37%
- viability at 100 µM [2]: 23.5%
- IC50 [2]: 24.8 ± 1.9 µM
- melting point: 154 to 156 °C
- viability at 1.56 µM [3]: 100%
- viability at 3.125 µM [3]: 100%
- viability at 6.25 µM [3]: 91.9%
- viability at 12.5 µM [3]: 72.7%
- viability at 25 µM [3]: 63.1%
- viability at 50 µM [3]: 50.2%
- viability at 100 µM [3]: 38.1%
- IC50 [3]: 51 ± 3 µM
- viability at 1.56 µM [4]: 100%
- viability at 3.125 µM [4]: 100%
- viability at 6.25 µM [4]: 94.7%
- viability at 12.5 µM [4]: 79.3%
- viability at 25 µM [4]: 65.2%
- viability at 50 µM [4]: 58%
- viability at 100 µM [4]: 40.4%
- IC50 [4]: 62.8 ± 3.3 µM
- viability at 1.56 µM [5]: 100%
- viability at 3.125 µM [5]: 85.9%
- viability at 6.25 µM [5]: 63.5%
- viability at 12.5 µM [5]: 48.1%
- viability at 25 µM [5]: 33.7%
- viability at 50 µM [5]: 25.8%
- viability at 100 µM [5]: 17%
- IC50 [5]: 13.8 ± 1 µM
- viability at 3.125 µM [6, 8]: 100%
- viability at 1.56 µM [6, 9]: 100%
- viability at 6.25 µM [6, 9]: 100%
- viability at 12.5 µM [6, 9]: 93.6%
- viability at 25 µM [6, 9]: 71.7%
- viability at 50 µM [6, 9]: 54.8%
- viability at 100 µM [6, 9]: 43.3%
- IC50 [7]: 67.7 ± 3.4 µM
